{"source": "paper PMC10714400", "about": "“Antimicrobial Peptide–Peptoid Hybrids with and without Membrane Disruption” (ACS Infectious Diseases, 2023)", "key": {"[1]": {"assay": "Lipid vesicle leakage assay", "conditions": "10 mM TRIS, 107 mM NaCl, pH 7.4", "procedure": "(c) Vesicle leakage assay for a selection of compounds.\nEYPG - EB11 1 EYPC - EB11\nFigure S2: Vesicle leakage experiments using 5(6)-carboxyfluorescein induced by peptides. EYPG and EYPC\ncompound was added after 45 sec. After 240 seconds, 30 µL Triton X-100 1.2% was added for full release of […]"}, "[2]": {"assay": "Circular dichroism, α-helical content", "assay_type": "physicochemical", "conditions": "0.1 mg/mL; for CD %α with 5 mM DPC: 10 mM phosphate buffer pH 7.4, 5 mM DPC; for CD %α with 20% TFE: 10 mM phosphate buffer pH 7.4, 20% TFE"}, "[3]": {"test_system": "P. aeruginosa PAO1", "procedure": "(§1) Antimicrobial activity was assayed for all the peptide–peptoids against P. aeruginosa PAO1, K. pneumoniae NCTC418, E. coli W3110, A. baumannii ATCC 19606, methicillin-resistant S. aureus COL (MRSA), and for selected peptides on P. aeruginosa PA14 and the polymyxin-B-resistant derivatives PA14 4.13, PA14 4.18, PA14 2P4, as well as the clinical isolates ZEM-1A and ZEM9A, K. pneumoniae OXA-48, S. aureus Newman, Enterobacter cloacae, Stenotrophomonas maltophilia, Burkholderia cenocepacia, and Staphylococus epidermidis. To determine the Minimal Inhibitory Concentration (MIC), the Broth Microdilution method was used.[72] A colony of bacteria was picked and grown in LB medium overnight at 37 °C.\n(§2) To each well was finally added 4 μL of the diluted bacterial suspension (see above), corresponding to approximately 5 × 10^5 CFU. For each test, two columns of the plate were kept for sterility control (medium only), growth control (medium with bacterial inoculum, no compound). The positive control, Polymyxin B (starting with a concentration of 16 μg/mL) in MH medium with bacterial inocula, was introduced in the two lines of the plate. The plates were incubated at 37 °C for ca. 18 h under static conditions. Next, 15 μL of 3-(4,5-dimethylthiazol-2-yl)-2,5-diphenyltetrazolium bromide (MTT)[73] (1 mg/mL in sterilized MilliQ deionized water) were added to each well, and the plates were incubated for 20–30 min at room temperature. The minimal inhibitory concentration (MIC) was defined as the lowest concentration of the compound that inhibits the visible growth of the tested bacteria (yellow) with the unaided eye."}, "[4]": {"test_system": "A. baumannii ATCC19606", "procedure": "as §1, §2"}, "[5]": {"test_system": "PA14 2P4 (pmrB)", "conditions": "CSV; […] MH at pH 8.5", "procedure": "as §1, §2"}, "[6]": {"test_system": "PA14 4.18 (pmrB)", "conditions": "CSV; […] MH at pH 8.5", "procedure": "as §1, §2"}, "[7]": {"test_system": "PA14 4.13 (phoQ)", "conditions": "CSV; […] MH at pH 8.5", "procedure": "as §1, §2"}, "[8]": {"test_system": "S. aureus COL (MRSA)", "procedure": "as §1, §2"}, "[9]": {"test_system": "K. pneumoniae NCTC418", "procedure": "as §1, §2"}, "[10]": {"test_system": "E. coli W3110", "procedure": "as §1, §2"}, "[11]": {"test_system": "S. aureus Newman", "conditions": "Table S3; […] MH at pH 8.5", "procedure": "as §1\nas §2, with “The plates were incubated at 37 °C for ca. 18 h under static conditions.” left out"}, "[12]": {"test_system": "P. aeruginosa PA14", "conditions": "Table S3; […] MH at pH 8.5, 16-20 hours at 37 °C", "procedure": "as §1\nas §2, with “The plates were incubated at 37 °C for ca. 18 h under static conditions.” left out"}, "[13]": {"test_system": "human red blood cells (hRBC)", "assay": "Minimum hemolytic concentration (MHC)", "assay_type": "cell-based", "excerpt": "We also measured minimal hemolysis concentrations (MHC) on human red blood cells by serial 2-fold dilution as an indication of toxicity against eukaryotic cells (Table 1)."}}, "note": "Where a SMILES comes first, the peptide text is derived from it. [ ]: non-standard residue; d: D form. Nleu = CC(C)CNCC(=O)O; Nlys = NCCCCNCC(=O)O"}
{"smiles": "CC(C)C[C@H](NC(=O)CN(CC(C)C)C(=O)[C@H](CCCCN)NC(=O)CNCCCCN)C(=O)N(CCCCN)CC(=O)N[C@@H](CC(C)C)C(=O)N(CC(=O)N[C@@H](CCCCN)C(=O)N(CC(=O)N[C@@H](CC(C)C)C(=O)N(CC(N)=O)CC(C)C)CC(C)C)CC(C)C", "note": "[EB10, kKlLkLlKlLl] (H-[Nlys]K[Nleu]L[Nlys]L[Nleu]K[Nleu]L[Nleu]-NH2)", "values": [{"measurement": "Vesicle leakage activity on EYPC vesicles", "setting": "[1]; egg yolk phosphatidyl choline vesicles", "result": "no activity"}, {"measurement": "Vesicle leakage activity on EYPG vesicles", "setting": "[1]; fluorescein-loaded anionic EYPG vesicles", "result": "weak or no vesicle leakage activity"}, {"measurement": "CD %α with 5 mM DPC", "setting": "[2]; DichroWeb, Contin-LL", "result": "11/11%"}, {"measurement": "CD %α with 20% TFE", "setting": "[2]; DichroWeb, Contin-LL", "result": "11/11%"}, {"measurement": "CD %α with 5 mM DPC", "setting": "[2]; Table S2", "result": 11, "unit": "%"}, {"measurement": "CD %α with 20% TFE", "setting": "[2]; Table S2", "result": 11, "unit": "%"}, {"measurement": "MIC P. aeruginosa PAO1, full MH at pH 7.4", "setting": "[3]; PAO1, 4 h, pH 7.4", "result": ">32", "unit": "ug/mL"}, {"measurement": "MIC P. aeruginosa PAO1, full MH at pH 8.5", "setting": "[3]; PAO1, 4 h, pH 8.5", "result": ">32", "unit": "ug/mL"}, {"measurement": "MIC P. aeruginosa PAO1 […] 7.4", "setting": "[3]; Table S2, […] MH, pH 7.4", "result": 4, "unit": "µg/mL"}, {"measurement": "MIC P. aeruginosa PAO1 […] 8.5", "setting": "[3]; Table S2, […] MH, pH 8.5", "result": 4, "unit": "µg/mL"}, {"measurement": "MIC P. aeruginosa PAO1 Full MH 7.4", "setting": "[3]; Table S2, full MH, pH 7.4", "result": "> 32", "unit": "µg/mL"}, {"measurement": "MIC P. aeruginosa PAO1 Full MH 8.5", "setting": "[3]; Table S2, full MH, pH 8.5", "result": "> 32", "unit": "µg/mL"}, {"measurement": "MIC A. baumannii ATCC19606, full MH at pH 7.4", "setting": "[4]; ATCC19606, 4 h, pH 7.4", "result": ">32", "unit": "ug/mL"}, {"measurement": "MIC A. baumannii ATCC19606, full MH at pH 8.5", "setting": "[4]; ATCC19606, 4 h, pH 8.5", "result": ">32", "unit": "ug/mL"}, {"measurement": "MIC A. baumannii ATCC19606 […] 7.4", "setting": "[4]; Table S2, […] MH, pH 7.4", "result": 16, "unit": "µg/mL"}, {"measurement": "MIC A. baumannii ATCC19606 Full MH 7.4", "setting": "[4]; Table S2, full MH, pH 7.4", "result": "> 32", "unit": "µg/mL"}, {"measurement": "MIC A. baumannii ATCC19606 Full MH 8.5", "setting": "[4]; Table S2, full MH, pH 8.5", "result": "> 32", "unit": "µg/mL"}, {"measurement": "MIC P. aeruginosa PA14 2P4, […] MH at pH 8.5", "setting": "[5]", "result": 8, "unit": "ug/mL"}, {"measurement": "MIC P. aeruginosa PA14 4.18, […] MH at pH 8.5", "setting": "[6]", "result": 8, "unit": "ug/mL"}, {"measurement": "MIC P. aeruginosa PA14 4.13, […] MH at pH 8.5", "setting": "[7]", "result": 4, "unit": "ug/mL"}, {"measurement": "MIC S. aureus COL (MRSA), full MH at pH 7.4", "setting": "[8]; COL, 4 h, pH 7.4", "result": ">32", "unit": "ug/mL"}, {"measurement": "MIC S. aureus COL (MRSA) […] 7.4", "setting": "[8]; Table S2, […] MH, pH 7.4", "result": 32, "unit": "µg/mL"}, {"measurement": "MIC S. aureus COL (MRSA) […] 8.5", "setting": "[8]; Table S2, […] MH, pH 8.5", "result": 8, "unit": "µg/mL"}, {"measurement": "MIC S. aureus COL (MRSA) Full MH 7.4", "setting": "[8]; Table S2, full MH, pH 7.4", "result": "> 32", "unit": "µg/mL"}, {"measurement": "MIC S. aureus COL (MRSA) Full MH 8.5", "setting": "[8]; Table S2, full MH, pH 8.5", "result": 32, "unit": "µg/mL"}, {"measurement": "MIC K. pneumoniae NCTC418, full MH at pH 7.4", "setting": "[9]; NCTC418, 4 h, pH 7.4", "result": ">32", "unit": "ug/mL"}, {"measurement": "MIC K. pneumoniae NCTC418, full MH at pH 8.5", "setting": "[9]; NCTC418, 4 h, pH 8.5", "result": ">32", "unit": "ug/mL"}, {"measurement": "MIC K. pneumoniae NCTC418 […] 7.4", "setting": "[9]; Table S2, […] MH, pH 7.4", "result": "> 32", "unit": "µg/mL"}, {"measurement": "MIC K. pneumoniae NCTC418 […] 8.5", "setting": "[9]; Table S2, […] MH, pH 8.5", "result": 32, "unit": "µg/mL"}, {"measurement": "MIC K. pneumoniae NCTC418 Full MH 7.4", "setting": "[9]; Table S2, full MH, pH 7.4", "result": "> 32", "unit": "µg/mL"}, {"measurement": "MIC K. pneumoniae NCTC418 Full MH 8.5", "setting": "[9]; Table S2, full MH, pH 8.5", "result": "> 32", "unit": "µg/mL"}, {"measurement": "MIC E. coli W3110, […] MH at pH 8.5", "setting": "[10]; CSV, […] MH at pH 8.5", "result": 3, "unit": "ug/mL"}, {"measurement": "MIC E. coli W3110, full MH at pH 7.4", "setting": "[10]; CSV, full MH at pH 7.4", "result": ">32", "unit": "ug/mL"}, {"measurement": "MIC E. coli W3110 […] 7.4", "setting": "[10]; Table S2, […] MH, pH 7.4", "result": 2, "unit": "µg/mL"}, {"measurement": "MIC E. coli W3110 […] 8.5", "setting": "[10]; Table S2, […] MH, pH 8.5", "result": "2 to 4", "unit": "µg/mL"}, {"measurement": "MIC E. coli W3110 Full MH 7.4", "setting": "[10]; Table S2, full MH, pH 7.4", "result": "> 32", "unit": "µg/mL"}, {"measurement": "MIC E. coli W3110 Full MH 8.5", "setting": "[10]; Table S2, full MH, pH 8.5", "result": 32, "unit": "µg/mL"}, {"measurement": "MIC E. coli W3110 […]", "setting": "[10]; diluted MH ([…] MH, pH 8.5) per Table 1 footnote b, 16–20 h at 37 °C", "result": "2 to 4", "unit": "µg/mL"}, {"measurement": "MIC S. aureus Newman", "setting": "[11]", "result": 8, "unit": "µg/mL"}, {"measurement": "MIC P. aeruginosa PA14", "setting": "[12]", "result": 4, "unit": "µg/mL"}, {"measurement": "Hemolysis", "setting": "[13]", "result": "none of them showed any measurable hemolysis"}, {"measurement": "MHC", "setting": "[13]", "result": ">2000", "unit": "µg/mL"}]}
